Test results reported in BindingDB's records for doi:10.7270/Q2PR7TFT (Burnham Center For Chemical Genomics, 2010).

Molecular target: T1, Type-1 angiotensin II receptor (Homo sapiens, UniProt P30556)
T1 sequence (P30556 whole entry): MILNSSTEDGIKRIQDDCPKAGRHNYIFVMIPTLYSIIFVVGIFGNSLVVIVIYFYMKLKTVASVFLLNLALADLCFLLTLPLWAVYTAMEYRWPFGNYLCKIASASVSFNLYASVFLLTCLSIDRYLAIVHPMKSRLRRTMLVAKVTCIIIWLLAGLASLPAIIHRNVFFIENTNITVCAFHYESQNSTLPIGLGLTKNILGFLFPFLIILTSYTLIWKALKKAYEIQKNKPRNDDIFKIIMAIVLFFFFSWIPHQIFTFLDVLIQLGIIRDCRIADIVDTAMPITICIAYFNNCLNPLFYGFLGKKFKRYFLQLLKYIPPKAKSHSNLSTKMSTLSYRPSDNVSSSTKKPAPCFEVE
Test: AT1 receptor agonists, dose response, selectivity assay for APJ receptor agonist project, cell-based, uHTS hits (AID 488865)

EC50, > 100 µM:
CCCCCCC1=Cc2c/c(=C3/NN=C(c4cc(OC)c(OC)c(OC)c4)O3)c(=O)oc2=CC1=O
COc1ccc(CN=Nc2cc(C)nc3ccc(OC)cc23)c(OC)c1
COC(=O)C1C(Cn2cnc3ccccc32)=NC(=O)NC1c1cc(C)ccc1C (centres undefined) [methyl 6-(benzimidazol-1-ylmethyl)-4-(2,5-dimethylphenyl)-2-oxo-3,4-dihydro-1H-pyrimidine-5-carboxylate]
CCOC(=O)C1C(Cn2cnc3ccccc32)=NC(=O)NC1c1cc(C)ccc1C (centres undefined) [ethyl 6-(benzimidazol-1-ylmethyl)-4-(2,5-dimethylphenyl)-2-oxidanylidene-3,4-dihydro-1H-pyrimidine-5-carboxylate]
